Activity calls are given as the source filed them. The calls are words filed in the database; no cut-off is given here.
Columns and labels:
[1] = system: Staphylococcus aureus; experiment: Antibacterial activity against Staphylococcus aureus ATCC 29213 at 1 ug/ml in absence of exogenous DNA; format: functional, organism-based; settings: dose 1.0 µg/ml
[2] = system: Staphylococcus aureus; experiment: Antibacterial activity against methicillin-resistant Staphylococcus aureus clinical isolate M-4 infected in KM mouse assessed as survival rate of bacteria at 5 mg/kg, sc measured after 24 hrs relative to control; format: functional
[3] = Binding affinity to phosphatidylglycerol (unknown origin) assessed as dissociation constant by ITC analysis
[4] = Toxicity in KM mouse assessed as histological abnormality in kidney at 20 mg/kg, sc measured after 24 hrs by H and E staining based analysis; format: organism-based; settings: in vivo
[5] = Toxicity in KM mouse assessed as change in mean corpuscular volume at 20 mg/kg, sc measured after 24 hrs; format: organism-based; settings: in vivo
[6] = Toxicity in KM mouse infected with methicillin-resistant Staphylococcus aureus clinical isolate M-4 assessed as histopathological abnormality in lungs at 5 to 10 mg/kg, sc measured after 24 hrs by H and E staining based analysis; format: organism-based; settings: in vivo, dose 5-10 mg/kg
[7] = system: Staphylococcus aureus; experiment: Antibacterial activity against methicillin-resistant Staphylococcus aureus clinical isolate M-4 infected in KM mouse assessed as decrease in abscesses in subcutaneous tissue at 5 to 10 mg/kg, sc measured after 24 hrs by H and E staining based analysis; format: functional, organism-based; settings: dose 5-10 mg/kg
[8] = Toxicity in KM mouse assessed as animal abnormality at 5 to 80 mg/kg, sc measured for 24 hrs; format: organism-based; settings: in vivo, dose 5-80 mg/kg
[9] = Toxicity in KM mouse assessed as change in WBC count at 20 mg/kg, sc measured after 24 hrs; format: organism-based; settings: in vivo
[10] = system: Escherichia coli; experiment: Antibacterial activity against Escherichia coli ATCC 25922 incubated for 16 to 18 hrs CLSI based by microbroth dilution assay; format: functional; settings: time 16-18 hrs
[11] = system: Staphylococcus aureus; experiment: Antibacterial activity against methicillin-resistant Staphylococcus aureus clinical isolate M-6 incubated for 16 to 18 hrs CLSI based by microbroth dilution assay; format: functional; settings: time 16-18 hrs
[12] = system: Staphylococcus aureus; experiment: Antibacterial activity against Staphylococcus aureus ATCC 29213 incubated for 16 to 18 hrs CLSI based by microbroth dilution assay; format: functional; settings: time 16-18 hrs
[13] = Toxicity in KM mouse assessed as histological abnormality in lungs at 20 mg/kg, sc measured after 24 hrs by H and E staining based analysis; format: organism-based; settings: in vivo
[14] = system: Staphylococcus aureus; experiment: Bactericidal activity against Staphylococcus aureus ATCC 29213 at 8 times MIC incubated for 1 hr by time kill assay relative to control; format: functional
[15] = Toxicity in KM mouse assessed as change in urea level at 20 mg/kg, sc measured after 24 hrs; format: organism-based; settings: in vivo
[16] = Cytotoxicity against human L02 cells assessed as cell survival at 32 ug/ml by MTT assay relative to control; format: toxicity, cell-based; settings: at 32 µg/mL, read-out: Survival
[17] = Toxicity in KM mouse assessed as survival rate at 5 to 80 mg/kg, sc measured for 24 hrs; format: organism-based; settings: in vivo, dose 5-80 mg/kg
[18] = system: Staphylococcus aureus; experiment: Antibacterial activity against methicillin-resistant Staphylococcus aureus clinical isolate M-4 infected in KM mouse assessed as survival rate of bacteria at 10 mg/kg, sc measured after 24 hrs relative to control; format: functional
[19] = system: Staphylococcus aureus; experiment: Antibacterial activity against methicillin-resistant Staphylococcus aureus clinical isolate M-4 upto 128 ug/ml incubated for 16 to 18 hrs in presence of peptidoglycan by broth dilution method; format: functional, organism-based; settings: dose <= 128.0 µg/ml, time 16-18 hrs
[20] = system: Staphylococcus aureus; experiment: Antibacterial activity against methicillin-resistant Staphylococcus aureus clinical isolate M-9 incubated for 16 to 18 hrs CLSI based by microbroth dilution assay; format: functional; settings: time 16-18 hrs
[21] = Toxicity in KM mouse assessed as histological abnormality in heart at 20 mg/kg, sc measured after 24 hrs by H and E staining based analysis; format: organism-based; settings: in vivo
[22] = system: Staphylococcus aureus; experiment: Antibacterial activity against methicillin-resistant Staphylococcus aureus clinical isolate M-8 incubated for 16 to 18 hrs CLSI based by microbroth dilution assay; format: functional; settings: time 16-18 hrs
[23] = Toxicity in KM mouse infected with methicillin-resistant Staphylococcus aureus clinical isolate M-4 assessed as histopathological abnormality in kidneys at 5 to 10 mg/kg, sc measured after 24 hrs by H and E staining based analysis; format: organism-based; settings: in vivo, dose 5-10 mg/kg
[24] = system: Staphylococcus aureus; experiment: Antibacterial activity against methicillin-resistant Staphylococcus aureus clinical isolate M-1 incubated for 16 to 18 hrs CLSI based by microbroth dilution assay; format: functional; settings: time 16-18 hrs
[25] = Toxicity in KM mouse assessed as change in mental health at 5 to 80 mg/kg, sc measured for 24 hrs; format: organism-based; settings: in vivo, dose 5-80 mg/kg
[26] = Selectivity index, ratio of HC50 for sheep erythrocytes to MIC for Staphylococcus aureus ATCC 29213; format: toxicity; settings: read-out: Selectivity Index
[27] = system: Staphylococcus aureus; experiment: Disruption of cell membrane in methicillin-resistant Staphylococcus aureus clinical isolate M-4 assessed as increase in red fluorescence at 32 ug/ml incubated for 2 hrs by SYTO9/PI staining based flow cytometry relative to control; format: functional; settings: dose 32 µg/ml
[28] = system: Staphylococcus aureus; experiment: Antibacterial activity against methicillin-resistant Staphylococcus aureus clinical isolate M-4 infected in KM mouse assessed as decrease in abnormality in skin area at 10 mg/kg, sc measured after 24 hrs by H and E staining based analysis; format: functional, organism-based
[29] = Toxicity in KM mouse infected with methicillin-resistant Staphylococcus aureus clinical isolate M-4 assessed as histopathological abnormality in spleen at 5 to 10 mg/kg, sc measured after 24 hrs by H and E staining based analysis; format: organism-based; settings: in vivo, dose 5-10 mg/kg
[30] = system: Staphylococcus aureus; experiment: Antibacterial activity against methicillin-resistant Staphylococcus aureus clinical isolate M-4 upto 128 ug/ml incubated for 16 to 18 hrs in presence of cardiolipin by broth dilution method; format: functional, organism-based; settings: dose <= 128.0 µg/ml, time 16-18 hrs
[31] = Hemolytic activity in sheep erythrocytes incubated for 1 hr by absorbance based assay; format: toxicity, cell-based, Ovis aries, Erythrocyte
[32] = system: Staphylococcus aureus; experiment: Induction of resistance development in Staphylococcus aureus ATCC 29213 assessed as fold increase in MIC at MIC measured after 17 passages relative to control; format: functional
[33] = system: Staphylococcus aureus; experiment: Antibacterial activity against methicillin-resistant Staphylococcus aureus clinical isolate M-7 incubated for 16 to 18 hrs CLSI based by microbroth dilution assay; format: functional; settings: time 16-18 hrs
[34] = Toxicity in KM mouse assessed as change in creatinine level at 20 mg/kg, sc measured after 24 hrs; format: organism-based; settings: in vivo
[35] = system: Staphylococcus aureus; experiment: Disruption of cell membrane in methicillin-resistant Staphylococcus aureus clinical isolate M-4 assessed as wrinkled cell membrane at 8 times MIC incubated for 1 hr by SEM analysis; format: functional, organism-based
[36] = system: Staphylococcus aureus; experiment: Disruption of cell membrane in methicillin-resistant Staphylococcus aureus clinical isolate M-4 assessed as increase in fluorescence intensity measured for 30 mins by DiSC3(5) dye based analysis; format: functional, organism-based; settings: dose 8-32 µg/ml
[37] = system: Staphylococcus aureus; experiment: Bactericidal activity against Staphylococcus aureus ATCC 29213 at 4 times MIC incubated for 2 hrs by time kill assay relative to control; format: functional
[38] = Toxicity in KM mouse assessed as change in platelet count at 20 mg/kg, sc measured after 24 hrs; format: organism-based; settings: in vivo
[39] = system: Staphylococcus aureus; experiment: Disruption of cell membrane in methicillin-resistant Staphylococcus aureus clinical isolate M-4 assessed as cell membrane rupture at 8 times MIC incubated for 1 hr by SEM analysis; format: functional, organism-based
[40] = system: Staphylococcus aureus; experiment: Antibacterial activity against methicillin-resistant Staphylococcus aureus clinical isolate M-10 incubated for 16 to 18 hrs CLSI based by microbroth dilution assay; format: functional; settings: time 16-18 hrs

For CCCCCNC(=O)C[N+](C)(C)CCCCn1c(-c2ccc(N(C)C)cc2)nc2c3ccccc3c3ccccc3c21.[Br-], the Activity [1] was “Active”, the survival at 5 mg/kg [2] was 0.42% and the Kd [3] was 39.8 µM. The Activity [4] was “Non-Toxic”, the Activity [5] was “Non-Toxic” and the Activity [6] was “Non-Toxic”. The Activity [7] was “Active”, the Activity [8] was “Non-Toxic” and the Activity [9] was “Non-Toxic”. It also gave an MIC [10] of 32 mg/L, an MIC [11] of 0.5 mg/L and an MIC [12] of 1 mg/L. For the same compound, the Activity [13] was “Non-Toxic”, the Activity [14] was 100% and the Activity [15] was “Non-Toxic”. For the same compound, the viability at 32 ug/ml [16] was greater than 72.2%, the survival at 24 h [17] was 100% and the survival at 10 mg/kg [18] was 0.01%. The Activity [19] was “Active”, the MIC [20] was 0.5 mg/L and the Activity [21] was “Non-Toxic”. The MIC [22] was 0.5 mg/L, the Activity [23] was “Non-Toxic” and the MIC [24] was 2 mg/L. The Activity [25] was “Non-Toxic”, the selectivity ratio [26] was 859 and the Activity [27] was 99.34%. For the same compound, the Activity [28] was “Active”, the Activity [29] was “Non-Toxic” and the Activity [30] was “Active”. The HC50 at 1 h [31] was 859 µg/mL, the fold change (FC) [32] was 128 and the MIC [33] was 0.5 mg/L. The Activity [34] was “Non-Toxic”, the Activity [35] was “Active” and the Activity [36] was “Dose-Dependent Effect”. For the same compound, the Activity [37] was 100%, the Activity [38] was “Non-Toxic” and the Activity [39] was “Active”. For the same compound, the MIC [40] was 1 mg/L.
